Assay results as given in patent publication US10570123B2 (SURFACE LOGIX, LLC, priority 2005, dated 2020).

Legend:
ROCK2 = ROCK2 (Homo sapiens (Human), UniProt O75116); assay: Inhibition of ROCK2; assay type: biochemical; conditions: FIG. 10 legend, qualitative
Text: Methods of determining kinase inhibition are well known in the art. For example, kinase activity of an enzyme and the inhibitory capacity of a test compound can be determined by measuring enzyme specific phosphorylation of a substrate. Commercial assays and kits can be employed. For example, kinase inhibition can be determined using an IMAP® assay (Molecular Devices). This assay method involves the use of a fluorescently-tagged peptide substrate. Phosphorylation of the tagged peptide by a kinase of interest promotes binding of the peptide to a trivalent metal-based nanoparticle via the specific, high affinity interaction between the phospho-group and the trivalent metal. Proximity to the nanoparticle results in increased fluorescence polarization. Inhibition of the kinase by a kinase inhibitor prevents phosphorylation of the substrate and thereby limits binding of the fluorescently-tagged substrate to the nanoparticle. […]
ROCK-II inhibitory activity can be measured using the ROCK-II Assay Kit (Molecular Devices, inc.; Sunnyvale, Calif.).
Inhibition of ROCK2 by various compounds was determined.
Inhibitory activity for Rho kinase was determined for examples of compounds of the present invention. […] For each of these compounds their inhibitory activity for both ROCK 1 and ROCK 2 was determined. […]

PKC = assay: Inhibition of PKC (FIG. 10 comparison); assay type: biochemical; conditions: FIG. 10 legend, qualitative

Chain of ROCK2 (O75116 whole entry, species assumed): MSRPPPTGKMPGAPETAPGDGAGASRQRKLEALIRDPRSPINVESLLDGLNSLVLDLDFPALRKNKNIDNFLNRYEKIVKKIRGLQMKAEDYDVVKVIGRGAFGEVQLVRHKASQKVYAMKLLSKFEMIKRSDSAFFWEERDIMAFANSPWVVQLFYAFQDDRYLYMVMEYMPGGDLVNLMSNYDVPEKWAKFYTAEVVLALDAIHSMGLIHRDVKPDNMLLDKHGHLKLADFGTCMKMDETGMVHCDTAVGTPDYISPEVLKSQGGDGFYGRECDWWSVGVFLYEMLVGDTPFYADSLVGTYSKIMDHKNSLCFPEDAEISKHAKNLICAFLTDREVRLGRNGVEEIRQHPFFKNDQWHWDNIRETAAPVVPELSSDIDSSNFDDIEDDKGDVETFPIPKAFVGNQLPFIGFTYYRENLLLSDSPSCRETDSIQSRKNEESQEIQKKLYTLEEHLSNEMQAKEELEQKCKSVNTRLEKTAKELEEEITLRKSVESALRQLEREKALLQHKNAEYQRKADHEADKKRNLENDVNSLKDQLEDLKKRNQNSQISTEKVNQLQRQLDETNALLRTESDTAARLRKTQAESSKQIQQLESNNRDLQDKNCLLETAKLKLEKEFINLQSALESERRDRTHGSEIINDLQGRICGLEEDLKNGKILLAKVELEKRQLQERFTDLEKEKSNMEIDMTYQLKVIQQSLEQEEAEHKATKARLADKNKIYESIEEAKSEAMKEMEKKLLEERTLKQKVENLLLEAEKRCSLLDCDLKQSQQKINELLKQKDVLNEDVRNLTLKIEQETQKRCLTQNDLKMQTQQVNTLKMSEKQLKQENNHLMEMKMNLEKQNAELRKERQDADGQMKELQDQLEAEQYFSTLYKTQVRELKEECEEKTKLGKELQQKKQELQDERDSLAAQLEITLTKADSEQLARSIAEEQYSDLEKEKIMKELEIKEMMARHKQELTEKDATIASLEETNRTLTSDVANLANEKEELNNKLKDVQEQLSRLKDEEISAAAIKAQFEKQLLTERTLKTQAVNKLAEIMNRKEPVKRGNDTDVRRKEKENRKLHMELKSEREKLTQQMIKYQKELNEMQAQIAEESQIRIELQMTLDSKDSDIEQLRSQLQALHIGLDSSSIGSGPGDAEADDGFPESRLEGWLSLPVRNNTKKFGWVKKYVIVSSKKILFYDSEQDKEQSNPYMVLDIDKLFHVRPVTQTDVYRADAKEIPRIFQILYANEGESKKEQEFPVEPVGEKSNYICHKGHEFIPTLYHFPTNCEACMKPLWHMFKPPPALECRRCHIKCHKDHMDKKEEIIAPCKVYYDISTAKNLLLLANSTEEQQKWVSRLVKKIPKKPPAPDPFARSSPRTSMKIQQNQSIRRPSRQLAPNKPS

SMILES	inhibition of ROCK2 (FIG. 10) (ROCK2)	inhibition of PKC (FIG. 10) (PKC)
CC(C)NC(=O)COc1cccc(-c2nc(Nc3ccc4[nH]ncc4c3)c3ccccc3n2)c1 [Example 82, 2-(3-(4-(1H-indazol-5-ylamino)quinazolin-2-yl)phenoxy)-N-isopropylacetamide]	specific inhibition of ROCK2	
C[C@@H](N)[C@H]1CC[C@H](C(=O)Nc2ccncc2)CC1 [Example Y27632]	inhibits	inhibits
